We go through 28 compounds from patent US20110082130A1 (LIGAND PHARMACEUTICALS, INC., priority 2006, published 2011).

Each structure is given as a SMILES string.

T1 sequence (Q9Y5N1 with tags, fused parts or gaps): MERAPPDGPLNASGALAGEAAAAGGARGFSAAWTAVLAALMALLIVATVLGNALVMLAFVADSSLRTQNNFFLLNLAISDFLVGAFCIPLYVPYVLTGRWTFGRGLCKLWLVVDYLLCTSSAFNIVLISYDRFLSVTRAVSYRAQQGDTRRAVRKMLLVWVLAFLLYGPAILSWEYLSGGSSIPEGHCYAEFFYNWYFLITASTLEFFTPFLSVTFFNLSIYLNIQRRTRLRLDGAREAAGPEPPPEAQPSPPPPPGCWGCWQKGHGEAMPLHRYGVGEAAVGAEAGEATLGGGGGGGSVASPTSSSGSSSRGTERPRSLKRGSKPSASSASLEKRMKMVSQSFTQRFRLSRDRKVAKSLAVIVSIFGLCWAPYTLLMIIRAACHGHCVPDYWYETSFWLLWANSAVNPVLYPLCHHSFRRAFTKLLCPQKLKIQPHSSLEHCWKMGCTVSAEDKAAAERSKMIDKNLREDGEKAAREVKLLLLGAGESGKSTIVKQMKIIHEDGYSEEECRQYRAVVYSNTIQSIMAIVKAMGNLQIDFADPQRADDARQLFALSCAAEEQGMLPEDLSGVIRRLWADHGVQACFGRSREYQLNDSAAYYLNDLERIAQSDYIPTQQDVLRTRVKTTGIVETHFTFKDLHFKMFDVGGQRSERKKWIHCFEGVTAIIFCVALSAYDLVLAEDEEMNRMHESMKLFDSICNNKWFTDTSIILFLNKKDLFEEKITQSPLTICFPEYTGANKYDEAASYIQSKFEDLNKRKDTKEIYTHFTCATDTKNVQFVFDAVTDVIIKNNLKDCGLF

One assay addresses T1, chimeric human H3 receptor (Homo sapiens, UniProt Q9Y5N1).
T1 construct: made in house; host or cells: Sf9 insect cells (baculovirus); P2 membrane preparation
Kind of assay: Chimeric human H3 receptor screening GTP binding assay (inhibition of histamine-stimulated GTP-gamma35S binding, Example 8). It is filed as biochemical. The following applies: 4 μM of the compound, 1 μM histamine, "†" in Ki of Table II, read-out: percent inhibition of the signal obtained with 1 μM histamine. On the procedure:
This Example illustrates a representative screening assay for evaluating inhibition of histamine-stimulated GTP-gamma^35S binding. Such GTP binding activity can be used to identify H3 antagonists and inverse agonists. A compound analyzed in this assay is referred to herein as a “test compound,” and the initial identification of antagonists and inverse agonists is performed using a test compound concentration of 4 μM.
Four independent baculoviral stocks (one directing the expression of the chimeric human H3 receptor and three directing the expression of each of the three subunits of a heterotrimeric G-protein) are used to infect a culture of Sf9 cells as described above. P2 membranes are prepared as described above, and are resuspended by Dounce homogenization (tight pestle) in GTP binding assay buffer (50 mM Tris pH 7.4, 120 mM NaCl, 5 mM MgCl2, 2 mM EGTA, 1 mg/ml BSA, 0.2 mg/ml bacitracin, 0.02 mg/ml aprotinin, 0.01 mg/ml saponin, 10 μM GDP) and added to assay tubes at a concentration of 35 μg protein/reaction tube. Non-radiolabeled test compounds are added to separate reactions at a concentration of 4 μM along with 1 μM histamine (agonist). Reactions are initiated by the addition of […] GTP-gamma^35S with a final assay volume of 0.20 ml.
After a 60-min incubation at room temperature, reactions are terminated by vacuum filtration over GF/C filters (pre-soaked in 50 mM Tris pH 7.4, 120 mM NaCl plus 0.1% BSA) followed by washing with ice-cold buffer (50 mM Tris pH 7.4, 120 mM NaCl). The amount of receptor-bound (and thereby membrane-bound) GTP-gamma^35S is determined by measuring the bound radioactivity, preferably by liquid scintillation spectrometry of the washed filters. Non-specific binding is determined using 10 uM GTP-gammaS and typically represents less than 5 percent of total binding. After subtraction of non-specific binding, data is expressed as percent inhibition of 1 μM histamine signal.
Neutral antagonists are those test compounds that reduce the histamine-stimulated GTP binding activity towards, but not below, baseline levels. In contrast, in the absence of added histamine, inverse agonists reduce the GTP binding activity of the receptor-containing membranes below baseline. Any test compound that elevates GTP binding activity above baseline in the absence of added histamine in this assay is defined as having agonist activity.
Regarding `O=C(CN1CCc2cc(-c3cccc4c3oc3ccccc34)ccc2C1)N1CCN(C2CCCCC2)CC1` [Compound 384, 2-[2-(4-cyclohexylpiperazin-1-yl)-2-oxoethyl]-6-dibenzo[b,d]furan-4-yl-1,2,3,4-tetrahydroisoquinoline], the inhibition at 4 µM was at least 90%.
Take `O=C(CN1CCc2cc(-c3ccc4ccccc4c3)ccc2C1)N1CCN(C2CCC2)CC1` [Compound 416, 2-[2-(4-cyclobutylpiperazin-1-yl)-2-oxoethyl]-6-(2-naphthyl)-1,2,3,4-tetrahydroisoquinoline]: the inhibition at 4 µM was at least 90%.
The same measure, in the same setting: under `CCc1ccc(-c2ccc3c(c2)CCN(CC(=O)N2CCN(C4CCC4)CC2)C3)cc1` [Compound 459, 2-[2-(4-cyclobutylpiperazin-1-yl)-2-oxoethyl]-6-(4-ethylphenyl)-1,2,3,4-tetrahydroisoquinoline] stands at least 90%.
The same measure, in the same setting: with `O=C(CN1CCc2cc(-c3cccc(F)c3)ccc2C1)N1CCN(C2CCC2)CC1` [Compound 410, 2-[2-(4-cyclobutylpiperazin-1-yl)-2-oxoethyl]-6-(3-fluorophenyl)-1,2,3,4-tetrahydroisoquinoline] the figure was at least 90%.
Still for that read-out and setting: under `CC(C)c1cccc(-c2ccc3c(c2)CCN(CC(=O)N2CCN(C4CCCCC4)CC2)C3)c1` [Compound 441, 2-[2-(4-cyclohexylpiperazin-1-yl)-2-oxoethyl]-6-(3-isopropylphenyl)-1,2,3,4-tetrahydroisoquinoline] stands at least 90%; under `CC(C)c1cccc(-c2ccc3c(c2)CCN(CC(=O)N2CCN(C4CCCC4)CC2)C3)c1` [Compound 440, 2-[2-(4-cyclopentylpiperazin-1-yl)-2-oxoethyl]-6-(3-isopropylphenyl)-1,2,3,4-tetrahydroisoquinoline], at least 90%; under `CCCCc1ccc(-c2ccc3c(c2)CCN(CC(=O)N2CCN(C4CCCC4)CC2)C3)cc1` [Compound 452, 6-(4-butylphenyl)-2-[2-(4-cyclopentylpiperazin-1-yl)-2-oxoethyl]-1,2,3,4-tetrahydroisoquinoline], at least 90%.
Consider `Cc1cccc(-c2ccc3c(c2)CCN(CC(=O)N2CCN(C4CCCCC4)CC2)C3)c1` [Compound 434, 2-[2-(4-cyclohexylpiperazin-1-yl)-2-oxoethyl]-6-(3-methylphenyl)-1,2,3,4-tetrahydroisoquinoline], for which the inhibition at 4 µM was at least 90%.
On the same count and under the same terms, with `Cc1cc(C)cc(-c2ccc3c(c2)CCN(CC(=O)N2CCN(C(C)C)CC2)C3)c1` [Compound 458, 6-(3,5-dimethylphenyl)-2-[2-(4-isopropylpiperazin-1-yl)-2-oxoethyl]-1,2,3,4-tetrahydroisoquinoline] the figure was at least 90%.
The same measure, in the same setting: under `Cc1ccc(F)c(-c2ccc3c(c2)CCN(CC(=O)N2CCN(C4CCCCC4)CC2)C3)c1` [Compound 425, 2-[2-(4-cyclohexylpiperazin-1-yl)-2-oxoethyl]-6-(2-fluoro-5-methylphenyl)-1,2,3,4-tetrahydroisoquinoline] stands at least 90%.
In the case of `Cc1ccc(-c2ccc3c(c2)CCN(CC(=O)N2CCN(C4CCCC4)CC2)C3)cc1F` [Compound 427, 2-[2-(4-cyclopentylpiperazin-1-yl)-2-oxoethyl]-6-(3-fluoro-4-methylphenyl)-1,2,3,4-tetrahydroisoquinoline], the inhibition at 4 µM is at least 90%.
Same read-out and setting: with `CC(C)c1ccc(-c2ccc3c(c2)CCN(CC(=O)N2CCN(C(C)C)CC2)C3)cc1` [Compound 446, 6-(4-isopropylphenyl)-2-[2-(4-isopropylpiperazin-1-yl)-2-oxoethyl]-1,2,3,4-tetrahydroisoquinoline] the figure was at least 90%; with `O=C(CN1CCc2cc(-c3ccc(Cl)cc3)ccc2C1)N1CCN(C2CCCC2)CC1` [Compound 405, 6-(4-chlorophenyl)-2-[2-(4-cyclopentylpiperazin-1-yl)-2-oxoethyl]-1,2,3,4-tetrahydroisoquinoline], at least 90%.

Staying with this assay, now noted: Table II "Ki", symbol †, 4 μM of the compound, 1 μM histamine, read-out: percent inhibition of the signal obtained with 1 μM histamine.
`O=C(CN1CCc2cc(-c3cncnc3)ccc2C1)N1CCN(C2CCOCC2)CC1` [Compound 621, 2-{2-oxo-2-[4-(tetrahydro-2H-pyran-4-yl)piperazin-1-yl]ethyl}-6-pyrimidin-5-yl-1,2,3,4-tetrahydroisoquinoline]: the inhibition at 4 µM was at least 90%.
Still for that read-out and setting: with `CCOc1ccccc1-c1ccc2c(c1)CCN(CC(=O)N1CCN(C3CCCC3)CC1)C2` [Compound 567, 2-[2-(4-cyclopentylpiperazin-1-yl)-2-oxoethyl]-6-(2-ethoxyphenyl)-1,2,3,4-tetrahydroisoquinoline] the figure was at least 90%; with `COc1ccc(-c2ccc3c(c2)CCN(CC(=O)N2CCN(C4CCCC4)CC2)C3)c(OC)c1` [Compound 564, 2-[2-(4-cyclopentylpiperazin-1-yl)-2-oxoethyl]-6-(2,4-dimethoxyphenyl)-1,2,3,4-tetrahydroisoquinoline], at least 90%; with `CCN1CCN(C(=O)CN2CCc3cc(-c4cncnc4)ccc3C2)CC1` [Compound 603, 2-[2-(4-ethylpiperazin-1-yl)-2-oxoethyl]-6-pyrimidin-5-yl-1,2,3,4-tetrahydroisoquinoline], at least 90%.
Still for that read-out and setting: under `CCC(C)N1CCN(C(=O)CN2CCc3cc(-c4cncnc4)ccc3C2)C[C@H]1C` (stereo partly drawn) [Compound 606, 2-{2-[(3R)-4-sec-butyl-3-methylpiperazin-1-yl]-2-oxoethyl}-6-pyrimidin-5-yl-1,2,3,4-tetrahydroisoquinoline] stands at least 90%; under `COc1ccc(-c2ccc3c(c2)CCN(CC(=O)N2CCN(C(C)C)CC2)C3)cc1C` [Compound 543, 2-[2-(4-isopropylpiperazin-1-yl)-2-oxoethyl]-6-(4-methoxy-3-methylphenyl)-1,2,3,4-tetrahydroisoquinoline], at least 90%; under `CC(C)Oc1cccc(-c2ccc3c(c2)CCN(CC(=O)N2CCN(C4CCCC4)CC2)C3)c1` [Compound 514, 2-[2-(4-cyclopentylpiperazin-1-yl)-2-oxoethyl]-6-(3-isopropoxyphenyl)-1,2,3,4-tetrahydroisoquinoline], at least 90%.
As to `CCCCN1CCN(C(=O)CN2CCc3cc(-c4cncnc4)ccc3C2)CC1` [Compound 604, 2-[2-(4-butylpiperazin-1-yl)-2-oxoethyl]-6-pyrimidin-5-yl-1,2,3,4-tetrahydroisoquinoline], the inhibition at 4 µM is at least 90%.
Same read-out and setting: with `O=C(CN1CCc2cc(-c3ccc(Cl)c(Cl)c3)ccc2C1)N1CCN(C2CCC2)CC1` [Compound 594, 2-[2-(4-cyclobutylpiperazin-1-yl)-2-oxoethyl]-6-(3,4-dichlorophenyl)-1,2,3,4-tetrahydroisoquinoline] the figure was at least 90%; with `CSc1cccc(-c2ccc3c(c2)CCN(CC(=O)N2CCN(C4CCC4)CC2)C3)c1` [Compound 494, 2-[2-(4-cyclobutylpiperazin-1-yl)-2-oxoethyl]-6-[3-(methylthio)phenyl]-1,2,3,4-tetrahydroisoquinoline], at least 90%.
Still for that read-out and setting: under `O=C(CN1CCc2cc(-c3ccc(F)c(F)c3)ccc2C1)N1CCN(C2CCC2)CC1` [Compound 589, 2-[2-(4-cyclobutylpiperazin-1-yl)-2-oxoethyl]-6-(3,4-difluorophenyl)-1,2,3,4-tetrahydroisoquinoline] stands at least 90%; under `COc1ccc(-c2ccc(-c3ccc4c(c3)CCN(CC(=O)N3CCN(C5CCC5)CC3)C4)cc2)cc1` [Compound 498, 2-[2-(4-cyclobutylpiperazin-1-yl)-2-oxoethyl]-6-(4′-methoxybiphenyl-4-yl)-1,2,3,4-tetrahydroisoquinoline], at least 90%; under `COc1ccc2cc(-c3ccc4c(c3)CCN(CC(=O)N3CCN(C(C)C)CC3)C4)ccc2c1` [Compound 512, 2-[2-(4-isopropylpiperazin-1-yl)-2-oxoethyl]-6-(6-methoxy-2-naphthyl)-1,2,3,4-tetrahydroisoquinoline], at least 90%.
Same read-out and setting: under `CC(C)N1CCN(C(=O)CN2CCc3cc(-c4ccc(Oc5ccccc5)cc4)ccc3C2)CC1` [Compound 489, 2-[2-(4-isopropylpiperazin-1-yl)-2-oxoethyl]-6-(4-phenoxyphenyl)-1,2,3,4-tetrahydroisoquinoline] stands at least 90%; under `CC(C)N1CCN(C(=O)CN2CCc3cc(-c4cccc(OC(F)(F)F)c4)ccc3C2)CC1` [Compound 493, 2-[2-(4-isopropylpiperazin-1-yl)-2-oxoethyl]-6-[3-(trifluoromethoxy)phenyl]-1,2,3,4-tetrahydroisoquinoline], at least 90%.
